This note sets out measurements from patent publication US11111237B2, “Bicyclic compound and use thereof” (SK BIOPHARMACEUTICALS CO., LTD., priority 2019, dated 2021).

Counter-ions that a name gives are not always drawn.

For this assay, the target named is PRMT5-MEP50 enzyme complex (Homo sapiens (Human), UniProt O14744). Put plainly: PRMT5 enzyme activity in vitro assay (methylation of histone H4R3, ELISA absorbance at 450 nm). To be noted: SAM, histone H4 peptide, room temperature 2 hours, 8 points from 10 μM to 0.128 nM. Type of assay: biochemical. Put shortly: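 Human PRMT5-MEP50 was prepared at 5 μg/mL with SAM at 2 μM and reacted 2 h at room temperature on plate-coated histone H4 (1-20) peptide. An 8-point 1:5 compound series ran from 10 μM to 0.128 nM. H4R3 methylation was detected by antibody/HRP ELISA at 450 nm to give IC50.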
PRMT5-MEP50 enzyme complex, sequence (O14744 2-637): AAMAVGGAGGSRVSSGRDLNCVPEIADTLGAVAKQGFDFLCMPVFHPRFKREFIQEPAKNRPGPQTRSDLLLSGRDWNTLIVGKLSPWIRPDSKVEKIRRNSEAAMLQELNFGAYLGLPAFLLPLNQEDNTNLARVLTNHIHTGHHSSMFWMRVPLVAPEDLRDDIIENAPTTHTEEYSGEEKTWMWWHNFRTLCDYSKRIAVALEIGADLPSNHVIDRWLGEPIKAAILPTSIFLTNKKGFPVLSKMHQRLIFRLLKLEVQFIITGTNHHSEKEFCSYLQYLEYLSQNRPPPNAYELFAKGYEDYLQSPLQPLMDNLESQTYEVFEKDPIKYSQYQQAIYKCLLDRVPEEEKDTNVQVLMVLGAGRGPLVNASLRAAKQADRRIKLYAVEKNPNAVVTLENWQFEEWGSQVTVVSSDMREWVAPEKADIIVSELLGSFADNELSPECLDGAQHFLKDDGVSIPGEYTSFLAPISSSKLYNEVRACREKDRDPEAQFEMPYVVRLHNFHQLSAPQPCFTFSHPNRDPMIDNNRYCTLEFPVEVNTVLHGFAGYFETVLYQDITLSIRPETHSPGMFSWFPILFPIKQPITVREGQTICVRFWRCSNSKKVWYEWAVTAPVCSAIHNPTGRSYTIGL
PRMT5-MEP50 enzyme complex, sequence (Q9BQA1 2-342 partner): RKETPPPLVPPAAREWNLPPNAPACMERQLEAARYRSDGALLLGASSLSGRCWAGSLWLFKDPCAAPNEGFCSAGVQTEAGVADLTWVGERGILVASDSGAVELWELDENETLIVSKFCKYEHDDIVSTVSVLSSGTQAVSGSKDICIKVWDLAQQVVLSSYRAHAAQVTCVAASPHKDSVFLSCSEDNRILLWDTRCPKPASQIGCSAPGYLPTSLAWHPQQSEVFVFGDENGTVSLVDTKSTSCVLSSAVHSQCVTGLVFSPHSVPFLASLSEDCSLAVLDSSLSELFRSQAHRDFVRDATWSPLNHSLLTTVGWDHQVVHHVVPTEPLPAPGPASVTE
In turn, `CN1CCN(C[C@H](O)CN2CCc3ccccc3C2)C(=O)c2ccc(OCc3ccc(F)cn3)cc21` [Example 139, 4-[(2R)-3-(3,4-dihydro-1H-isoquinolin-2-yl)-2-hydroxy-propyl]-8-[(5-fluoro-2-pyridyl)methoxy]-1-methyl-2,3-dihydro-1,4-benzodiazepin-5-one] displayed a half-maximal inhibitory concentration (IC50) of 100 to 1000 nM. Next, `CC1CN(C[C@H](O)CN2CCc3ccccc3C2)C(=O)c2ccc(OC3CCNCC3)cc2O1` (stereo partly drawn) [Example 140, 4-[(2R)-3-(3,4-dihydro-1H-isoquinolin-2-yl)-2-hydroxypropyl]-2-methyl-8-(4-piperidyloxy)-2,3-dihydro-1,4-benzoxazepin-5-one di hydrochloride]: 100 to 1000 nM; `CC1CN(C[C@H](O)CN2CCc3ccccc3C2)C(=O)c2ccc(OC3CCN(C)CC3)cc2O1` (stereo partly drawn) [Example 141, 4-[(2R)-3-(3,4-dihydro-1H-isoquinolin-2-yl)-2-hydroxypropyl]-2-methyl-8-[(1-methyl-4-piperidyl)oxy]-2,3-dihydro-1,4-benzoxazepin-5-one]: 1 to 100 nM; `CC(=O)N1CC(Oc2ccc3c(c2)O[C@H](C)CN(C[C@H](O)CN2CCc4ccccc4C2)C3=O)C1` [Example 142, (2R)-8-(1-acetylazetidin-3-yl)oxy-4-[(2R)-3-(3,4-dihydro-1H-isoquinolin-2-yl)-2-hydroxypropyl]-2-methyl-2,3-dihydro-1,4-benzoxazepin-5-one]: 1 to 100 nM. The figure for `C[C@@H]1CN(C[C@H](O)CN2CCc3ccccc3C2)C(=O)c2ccc(OC3CCN(C)CC3)cc2O1` [Example 143, (2R)-4-[(2R)-3-(3,4-dihydro-1H-isoquinolin-2-yl)-2-hydroxypropyl]-2-methyl-8-[(1-methyl-4-piperidyl)oxy]-2,3-dihydro-1,4-benzoxazepin-5-one] is 100 to 1000 nM. For the molecule `CC1CN(C[C@H](O)CN2CCc3ccccc3C2)C(=O)c2ccc(OC3CCN(C)CC3)nc2O1` (stereo partly drawn) [Example 144, 4-[(2R)-3-(3,4-dihydro-1H-isoquinolin-2-yl)-2-hydroxypropyl]-2-methyl-8-[(1-methyl-4-piperidyl)oxy]-2,3-dihydropyrido[3,2-f][1,4]oxazepin-5-one], the concentration for half-maximal inhibition (IC50) fell in the range of 100 to 1000 nM. Next, `CN1CCC(Oc2ccc3c(n2)OC(C)(C)CN(C[C@H](O)CN2CCc4ccccc4C2)C3=O)CC1` [Example 145, 4-[(2R)-3-(3,4-dihydro-1H-isoquinolin-2-yl)-2-hydroxypropyl]-2,2-dimethyl-8-[(1-methyl-4-piperidyl)oxy]-3H-pyrido[3,2-f][1,4]oxazepin-5-one]: 100 to 1000 nM; `C[C@H]1CN(C[C@H](O)CN2CCc3ccccc3C2)C(=O)c2ccc(OC3CCN(C)CC3)cc2O1` [Example 146, (2S)-4-[(2R)-3-(3,4-dihydro-1H-isoquinolin-2-yl)-2-hydroxypropyl]-2-methyl-8-[(1-methyl-4-piperidyl)oxy]-2,3-dihydro-1,4-benzoxazepin-5-one]: 100 to 1000 nM.

`O=C1c2ccccc2OCCN1CC(O)CN1CCc2ccccc2C1` (stereo not drawn) [Example 147, 4-[3-(3,4-dihydro-1H-isoquinolin-2-yl)-2-hydroxy-propyl]-2,3-dihydro-1,4-benzoxazepin-5-one] had an IC50 of 100 to 1000 nM.

The molecule `O=C1c2ccccc2CCCN1CC(O)CN1CCc2ccccc2C1` (stereo not drawn) [Example 148, 2-[3-(3,4-dihydro-1H-isoquinolin-2-yl)-2-hydroxy-propyl]-4,5-dihydro-3H-2-benzazepin-1-one] showed a concentration for half-maximal inhibition (IC50) of 1000 to 10000 nM. Molecule `O=C1c2ccccc2OCCN1C[C@H](O)CN1CCc2ccccc2C1` [Example 149, 4-[(2R)-3-(3,4-dihydro-1H-isoquinolin-2-yl)-2-hydroxy-propyl]-2,3-dihydro-1,4-benzoxazepin-5-one] returned a half-maximal inhibitory concentration (IC50) of 100 to 1000 nM. Next, `O=C1c2ccc(F)cc2OCCN1C[C@H](O)CN1CCc2ccccc2C1` [Example 150, 4-[(2R)-3-(3,4-dihydro-1H-isoquinolin-2-yl)-2-hydroxy-propyl]-8-fluoro-2,3-dihydro-1,4-benzoxazepin-5-one]: 100 to 1000 nM.
